{"source": "patent US20250302792A1", "about": "“ACTIVE SUBSTANCES FOR MEDICAL USE” (inflamed pharma GmbH, priority 2022, published 2025)", "key": {"[1]": {"test": "Solubility in octanol, content by UV/VIS spectroscopy and pH", "format": "physicochemical", "conditions": "for pH: solubility test in octanol", "description": "Solubility tests in octanol were conducted, and the content in the organic phase was examined by UV/VIS spectroscopy, as were the pH values."}, "[2]": {"test_system": "A. fumigatus", "format": "cell-based, Aspergillus fumigatus"}, "[3]": {"test_system": "A. fumigatus", "test": "Hyphae formation of A. fumigatus in a human cell-free system, DMEM with 10% FCS (FIG. 4)", "format": "cell-based, Aspergillus fumigatus", "conditions": "10 h", "description": "(A) Procedure for the treatment method: conidia of a GFP-expressing A. fumigatus strain [5*10^6 conidia/well] was sown on cover slips in 24-well plates and incubated with solvent (H2O) or with the specified concentrations of voriconazole, ProcCluster® (B-C) or procaine HCl (D-E) in DMEM with 10% FCS at 37° C., 5% CO2, for 10 h. Subsequently, the fungi were fixed (3.7% formaldehyde in PBS, 1 h, room temperature) and applied to microscope slides with fluorescent dye solution (Agilent, Santa Clara, CA, USA). (B, D) The growth of A. fumigatus was visualized via internal GFP expression. The scale of the immunofluorescence images corresponds to 100 μm. Detection of immunofluorescence and imaging and image processing were effected with an Axio Observer.Z1 microscope (Zeiss, Jena, Germany) and the Fiji V 1.52b software (github.com/fiji/fiji). (C, E) Fungus size was determined by means of the particle counter software (github.com/chko90/particle counter). Five immunofluorescence images were taken for each sample. The fungus sizes ascertained were normalized and the solvent control was set at 100%. Statistical significance was ascertained by a one-way ANOVA test with Dunnett multiple comparison test using GraphPad Prism 9.2 (Graphpad Software, Boston, USA) (p<0.05 was considered to be the level of statistical significance)."}, "[4]": {"test_system": "A. fumigatus", "test": "Hyphae formation of GFP-expressing A. fumigatus conidia in DMEM/BA medium (FIG. 1)", "format": "cell-based, Aspergillus fumigatus", "conditions": "procaine HCl 0.31 or 1.25-10 mM, 10 h, 37° C.", "description": "(A) Procedure for the treatment method: conidia of a green-fluorescence protein (GFP)-expressing A. fumigatus strain [5*10^6 conidia/well] were sown on cover slips in 24-well plates in 300 μl of DMEM/BA medium (0.2% BSA, 1 mM MgCl2 and 0.9 mM CaCl2) and, in each case supplemented with solvent (H2O), procaine HCl [0.31 (B) or 1.25 (C)—10 mM] or voriconazole [0.2 μg ml^−1], incubated at 37° C., 5% CO2, for 10 h. Subsequently, the fungi were fixed (3.7% formaldehyde in PBS, 30 min, room temperature) and applied to microscope slides with the aid of fluorescent dye solution (Agilent, Santa Clara, CA, USA). The hyphae size was analyzed by (B) Axio Observer.Z1 microscope (Zeiss, Jena, Germany) and the Fiji V 1.52b software (github.com/fiji/fiji). (C) Fungus size was calculated with the particle counter software (github.com/chko90/particle counter). The data are a representation of four experiments (B) or the mean+SD of four experiments with two technical samples in each case (C). Statistical significance was calculated with GraphPad Prism 9.2 (Graphpad Software, Boston, USA) using the one-way ANOVA Dunnett multiple comparison test. P values are indicated by asterisks *p<0.05."}, "[5]": {"test_system": "influenza virus A/Puerto Rico/8/34 (IAV)", "format": "cell-based"}, "[6]": {"test_system": "A. fumigatus", "format": "cell-based, Aspergillus fumigatus", "remark": "listed apart in the source"}, "[7]": {"test_system": "influenza virus A/Puerto Rico/8/34", "format": "cell-based"}}, "note": "Where a name gives a salt, the structure may show the parent alone. Read-outs that look alike come from different tables or passages of the source."}
{"compound": "CCN(CC)CCOC(=O)c1ccc(N)cc1", "note": "[Procaine, 2-(N,N-diethylamino)ethyl 4-aminobenzoate]", "values": [{"measurement": "Content (solubility in octanol, content in the organic phase)", "setting": "[1]", "result": "completely dissolved (100%)"}, {"measurement": "pH", "setting": "[1]", "result": 8.5}]}
{"compound": "CCN(CC)CCOC(=O)c1ccc(N)cc1.O=C(O)O", "note": "[Carbonic acid adduct of procaine]", "values": [{"measurement": "membrane permeability concluded from solubility in the organic phase", "setting": "[1]; octanol", "result": "membrane-permeable"}, {"measurement": "Content (solubility in octanol, content in the organic phase)", "setting": "[1]; octanol, UV/VIS spectroscopy", "result": 74, "unit": "%"}, {"measurement": "pH", "setting": "[1]", "result": 7.5}]}
{"compound": "CCN(CC)CCOC(=O)c1ccc(N)cc1", "note": "[Procaine hydrochloride, procaine hydrochloride]", "values": [{"measurement": "pathogenic load of A. fumigatus", "setting": "[2]", "result": "reduced"}, {"measurement": "hyphae formation", "setting": "[3]", "result": "reduced hyphae formation"}, {"measurement": "hyphae formation by A. fumigatus", "setting": "[4]", "result": "reduces hyphae formation"}, {"measurement": "virus load", "setting": "[5]", "result": "reduced virus load"}, {"measurement": "hyphae formation", "setting": "[6]", "result": "reduced"}, {"measurement": "Content (solubility in octanol, content in the organic phase)", "setting": "[1]; octanol, UV/VIS spectroscopy, hydrochloride", "result": 8, "unit": "%"}, {"measurement": "Content (solubility in octanol, content in the organic phase)", "setting": "[1]; octanol, UV/VIS spectroscopy, listed as Procaine HCl, hydrochloride", "result": 8, "unit": "%"}, {"measurement": "pH", "setting": "[1]; hydrochloride", "result": 4.5}, {"measurement": "pathogenic load of influenza viruses", "setting": "[7]", "result": "reduced"}]}
